The RepoRT retention time repository (doi:10.1016/j.jchromb.2020.122105)

Legend:
Conditions in all cases: stereoisomer not certain
[1] = RP, Waters CORTECS T3, 100 × 2.1 mm, 2.7 µm, 0.3 mL/min, estimated dead time 0.73 min; A: water + 0.1% formic acid, pH 3; B: methanol + 0.1% formic acid, pH 3; gradient (min/%B) 0/0 5/0 25/100 30/100 30.1/0 35/0
[2] = RP, Waters CORTECS T3, 100 × 2.1 mm, 2.7 µm, 0.2 mL/min, estimated dead time 1.1 min; A: water + 0.1% formic acid, pH 3; B: methanol + 0.1% formic acid, pH 3; gradient (min/%B) 0/0 1/0 6/5 30/100 35/100 35.1/0 40/0
[3] = RP, Waters CORTECS T3, 100 × 2.1 mm, 2.7 µm, 0.3 mL/min, estimated dead time 0.73 min; A: water + 0.1% formic acid, pH 3; B: methanol + 0.1% formic acid, pH 3; gradient (min/%B) 0/0 1/0 6/5 30/100 35/100 35.1/0 40/0
[4] = RP, Waters CORTECS T3, 100 × 2.1 mm, 2.7 µm, 0.2 mL/min, estimated dead time 1.1 min; A: water + 0.1% formic acid, pH 3; B: methanol + 0.1% formic acid, pH 3; gradient (min/%B) 0/5 5/5 25/95 25.1/100 35/100 35.1/5 45/5
[5] = RP, Waters CORTECS T3, 100 × 2.1 mm, 2.7 µm, 0.15 mL/min, estimated dead time 1.5 min; A: water + 0.1% formic acid, pH 3; B: methanol + 0.1% formic acid, pH 3; gradient (min/%B) 0/5 5/5 25/95 25.1/100 35/100 35.1/5 45/5
[6] = RP, Waters ACQUITY UPLC BEH C18, 100 × 2.1 mm, 1.7 µm, 0.2 mL/min, estimated dead time 1.1 min; A: water + 0.1% formic acid, pH 3; B: methanol + 0.1% formic acid, pH 3; gradient (min/%B) 0/5 5/5 25/100 30/100 30.1/5 35/5
[7] = RP, Waters CORTECS T3, 100 × 2.1 mm, 2.7 µm, 0.25 mL/min, estimated dead time 0.88 min; A: water + 0.1% formic acid, pH 3; B: methanol + 0.1% formic acid, pH 3; gradient (min/%B) 0/5 5/5 25/95 25.1/100 35/100 35.1/5 45/5
[8] = RP, Waters ACQUITY UPLC BEH C18, 100 × 2.1 mm, 1.7 µm, 0.1 mL/min, estimated dead time 2.2 min; A: water + 0.1% formic acid, pH 3; B: methanol + 0.1% formic acid, pH 3; gradient (min/%B) 0/5 5/5 25/95 25.1/100 35/100 35.1/5 45/5
[9] = RP, Waters ACQUITY UPLC BEH C18, 100 × 2.1 mm, 1.7 µm, 0.2 mL/min, estimated dead time 1.1 min; A: water + 0.025% formic acid + 20 mM ammonium acetate + 0.055% ammonium hydroxide, pH 7; B: methanol; gradient (min/%B) 0/5 5/5 25/100 30/100 30.1/5 35/5
[10] = HILIC, Waters XBridge BEH Amide, 100 × 2.1 mm, 2.5 µm, 0.5 mL/min, estimated dead time 0.44 min; A: water + 0.1% acetic acid + 10 mM ammonium acetate, pH 4; B: 5% water + 95% acetonitrile + 0.1% acetic acid + 10 mM ammonium acetate, pH 4; gradient (min/%B) 0/95 5/95 20/57 25/57 30/95 40/95
[11] = HILIC, Merck SeQuant ZIC-HILIC, 150 × 2.1 mm, 5 µm, 0.75 mL/min, estimated dead time 0.44 min; A: water + 10 mM ammonium formate, pH 6; B: 5% water + 95% acetonitrile + 10 mM ammonium formate, pH 6; gradient (min/%B) 0/95 5/95 20/57 25/57 30/95 40/95
[12] = RP, Waters CORTECS T3, 100 × 2.1 mm, 2.7 µm, 0.3 mL/min, estimated dead time 0.73 min; A: water + 0.1% formic acid, pH 3; B: methanol + 0.1% formic acid, pH 3; gradient (min/%B) 0/5 5/5 25/100 30/100 30.1/5 35/5
[13] = RP, Waters CORTECS T3, 100 × 2.1 mm, 2.7 µm, 0.3 mL/min, estimated dead time 0.73 min; A: water + 0.1% formic acid, pH 3; B: methanol + 0.1% formic acid, pH 3; gradient (min/%B) 0/0 5/0 25/100 30/100 30.1/0 35/0; remark: listed apart in the source
[14] = RP, Waters CORTECS T3, 100 × 2.1 mm, 2.7 µm, 0.2 mL/min, estimated dead time 1.1 min; A: water + 0.1% formic acid, pH 3; B: methanol + 0.1% formic acid, pH 3; gradient (min/%B) 0/0 1/0 6/5 30/100 35/100 35.1/0 40/0; remark: listed apart in the source
[15] = RP, Waters CORTECS T3, 100 × 2.1 mm, 2.7 µm, 0.15 mL/min, estimated dead time 1.5 min; A: water + 0.1% formic acid, pH 3; B: methanol + 0.1% formic acid, pH 3; gradient (min/%B) 0/0 1/0 6/5 30/100 35/100 35.1/0 40/0
[16] = RP, Waters CORTECS T3, 100 × 2.1 mm, 2.7 µm, 0.3 mL/min, estimated dead time 0.73 min; A: water + 0.1% formic acid, pH 3; B: methanol + 0.1% formic acid, pH 3; gradient (min/%B) 0/0 1/0 6/5 30/100 35/100 35.1/0 40/0; remark: listed apart in the source
[17] = RP, Waters CORTECS T3, 100 × 2.1 mm, 2.7 µm, 0.25 mL/min, estimated dead time 0.88 min; A: water + 0.1% formic acid, pH 3; B: methanol + 0.1% formic acid, pH 3; gradient (min/%B) 0/0 1/0 6/5 30/100 35/100 35.1/0 40/0
[18] = RP, Waters CORTECS T3, 100 × 2.1 mm, 2.7 µm, 0.3 mL/min, estimated dead time 0.73 min; A: water + 0.1% formic acid, pH 3; B: methanol + 0.1% formic acid, pH 3; gradient (min/%B) 0/5 5/5 25/95 25.1/100 35/100 35.1/5 45/5
[19] = RP, Waters ACQUITY UPLC BEH C18, 100 × 2.1 mm, 1.7 µm, 0.1 mL/min, estimated dead time 2.2 min; A: water + 0.1% formic acid, pH 3; B: methanol + 0.1% formic acid, pH 3; gradient (min/%B) 0/5 5/5 25/100 30/100 30.1/5 35/5
[20] = HILIC, Merck SeQuant ZIC-HILIC, 150 × 2.1 mm, 5 µm, 0.75 mL/min, estimated dead time 0.44 min; A: water + 0.1% acetic acid + 10 mM ammonium acetate, pH 4; B: 5% water + 95% acetonitrile + 0.1% acetic acid + 10 mM ammonium acetate, pH 4; gradient (min/%B) 0/95 5/95 20/57 25/57 30/95 40/95
[21] = RP, Waters CORTECS T3, 100 × 2.1 mm, 2.7 µm, 0.1 mL/min, estimated dead time 2.2 min; A: water + 0.1% formic acid, pH 3; B: methanol + 0.1% formic acid, pH 3; gradient (min/%B) 0/5 5/5 25/95 25.1/100 35/100 35.1/5 45/5
[22] = RP, Waters CORTECS T3, 100 × 2.1 mm, 2.7 µm, 0.1 mL/min, estimated dead time 2.2 min; A: water + 0.1% formic acid, pH 3; B: methanol + 0.1% formic acid, pH 3; gradient (min/%B) 0/0 1/0 6/5 30/100 35/100 35.1/0 40/0

Row | Compound | LC retention time [1] | LC retention time [2] | LC retention time [3] | LC retention time [4] | LC retention time [5] | LC retention time [6] | LC retention time [7] | LC retention time [8] | LC retention time [9] | LC retention time [10] | LC retention time [11] | LC retention time [20] | further results
1 | CSCCC(NC(C)=O)C(=O)O (racemic) [N-ACETYL-DL-METHIONINE] | 9.23 min | 10.6 min | 8.96 min | 14.3 min | 10.4 min | 9.48 min | 7.94 min | 13.3 min | 2.97 min | 8.06 min | – | – | –
2 | Nc1ccn(C2CC(O)C(COP(=O)(O)O)O2)c(=O)n1 (stereo unspecified) [2'-DEOXYCYTIDINE 5'-MONOPHOSPHATE] | 0.89 min | 1.35 min | 0.92 min | 2.67 min | – | 1.38 min | – | 2.67 min | – | – | 14.5 min | – | –
3 | N[C@@H](Cc1ccc(O)c(O)c1)C(=O)O [3,4-DIHYDROXY-L-PHENYLALANINE] | – | 1.42 min | – | 2.75 min | 1.78 min | 1.38 min | – | 2.7 min | – | – | – | – | LC retention time [12]: 0.93 min; LC retention time [13]: 0.93 min; LC retention time [14]: 1.38 min; LC retention time [15]: 1.87 min; LC retention time [16]: 0.92 min; LC retention time [17]: 1.13 min; LC retention time [18]: 0.9 min; LC retention time [19]: 2.74 min
4 | CC(CCC(=O)O)C1CCC2C3C(O)CC4CC(O)CCC4(C)C3CC(O)C12C (stereo unspecified) [CHOLATE] | 21.9 min | – | 25.4 min | 29.8 min | 24.7 min | 22.9 min | 22.9 min | – | 19.6 min | – | – | – | –
5 | CC(O)(CC(=O)O)C(=O)O (stereo unspecified) [CITRAMALATE] | 2.32 min | 3.28 min | 2.32 min | 6.38 min | 3.28 min | 2.7 min | 1.99 min | 5.3 min | – | – | 12.8 min | 12.2 min | –
6 | Nc1ccn(C2OC(COP(=O)(O)OP(=O)(O)O)C(O)C2O)c(=O)n1 (stereo unspecified) [CYTIDINE 5'-DIPHOSPHATE] | 0.89 min | 1.35 min | – | – | 1.98 min | – | – | – | – | – | – | – | –
7 | COc1cc(C=CC(=O)O)ccc1O [FERULATE] | – | 15.6 min | – | 19.1 min | 15.1 min | 14.3 min | – | 17.2 min | 1.78 min | 2.26 min | 2.09 min | 3.23 min | LC retention time [12]: 12.3 min; LC retention time [15]: 16.9 min; LC retention time [16]: 14.1 min; LC retention time [17]: 14.8 min; LC retention time [21]: 17.2 min
8 | Nc1nc2ncc(CNc3ccc(C(=O)NC(CCC(=O)O)C(=O)O)cc3)nc2c(=O)[nH]1 (stereo unspecified) [FOLIC ACID] | 11.4 min | 13.2 min | 12.2 min | 15.9 min | 12.6 min | 11.2 min | 11.1 min | – | 1.36 min | – | 14.9 min | 14.4 min | LC retention time [12]: 10.5 min; LC retention time [13]: 11.3 min; LC retention time [14]: 13.2 min; LC retention time [22]: 11.7 min; LC retention time [16]: 12.2 min; LC retention time [17]: 12.6 min; LC retention time [18]: 10.7 min; LC retention time [19]: 13.8 min
9 | CCOC(OCC)C(O)COP(=O)(O)O (stereo unspecified) [GLYCERALDEHYDE 3-PHOSPHATE DIETHYL ACETAL] | – | 8.23 min | 6.25 min | 12.2 min | 7.38 min | – | – | – | 1.41 min | – | – | – | –
10 | CC(=O)N[C@@H](CC(=O)O)C(=O)O [N-ACETYL-L-ASPARTIC ACID] | 0.97 min | 1.42 min | 0.96 min | 2.78 min | 1.83 min | 1.84 min | 1.13 min | – | 1.36 min | 13.5 min | 14 min | 13.5 min | –
11 | O=C(O)CCCCCCCCCCCO [OMEGA-HYDROXYDODECANOIC ACID] | – | – | 22.4 min | – | 22.2 min | – | 20.4 min | – | 16.3 min | 1.1 min | – | – | –
12 | O=c1ccn(C2OC(CO)C(O)C2O)c(=O)[nH]1 (stereo unspecified) [URIDINE] | – | – | – | – | 1.83 min | – | – | – | – | 3.95 min | – | 4.54 min | –
